Measurements taken from US20220081481A1, “USE OF AGENTS CAPABLE OF INDUCING LC3-ASSOCIATED PHAGOCYTOSIS FOR TREATING SUSTAINED INFLAMMATION IN PATIENTS SUFFERING FROM CHRONIC LIVER DISEASE” (INSERM (INSTITUT NATIONAL DE LA SANTÉ ET DE LA RECHERCHE …, priority 2019, published 2022).
Ends that are not written are not given here.

Test system: blood monocytes from patients with cirrhosis
Assay: LC3+ pHrodo+ phagosome (LAPosome) number in blood monocytes from patients with cirrhosis
Assay type: cell-based, human
Details: 10 mM 3-MA, 30 μM N8 peptide, data not shown
Procedure: Human blood monocytes. Human monocytes were isolated from freshly isolated PBMC, using EasySep human monocyte enrichment kit (STEMCELL Technologies, 19058), and CD14+CD16+ monocytes were isolated by immunomagnetic negative selection according to the manufacturer's instructions. Cell treatment. Human monocytes, THP1-XBlueTM-CD14 (Invivogen, Catalog #[…] THP1-FcγRIIA+-CD14+(kindly provided by Novimmune) monocytes were used. When indicated cells were exposed to either 30 μM chloroquine diphosphate (Sigma, C6628), 10 mM 3-Methyladenine (3-MA, Sigma, M9281-100 mg), 10 mM Diphenyleneiodonium chloride (DPI, Sigma, D2926-10 mg), or 10 mg/ml IVIg (Privigen, 100 mg/ml) for 4 hrs at 37° C., as indicated. […] For quantification, images were acquired by confocal microscopy (Confocal Zeiss LSM 780) equipped with a 63× oil immersion objective. For each condition, 10 to 15 fields were randomly selected, and the number of LC3+ signal localized around pHrodo+ phagosomes (LC3+ pHrodo+) was quantified in at least 40 to 60 cells. Unless otherwise indicated, results are expressed as number of LC3+ phagosomes/individual normalized to 100 cells. […]

Cn1cnc(N)c2ncnc1-2 [3-MA, 3-Methyladenine]
LC3+ phagosome number: significant reduction

N8 peptide: Tat-conjugated peptide of eight N-terminal amino acids (3-10) of p22phox that blocks the Rubicon-p22phox interaction (QIEWAMWA; also: Tat cell-penetrating peptide conjugate, attachment not given here; UniProt P13498 3-10, looked up, fragment)
LC3+ phagosome number: significant reduction
